Results: US8450352B2, “Thiazole compounds and their use for inhibiting phosphodiesterase 4, TNF-α, and IL-4” (Otsuka Pharmaceutical Co., Ltd., priority 2004, dated 2013)
Structures can show the parent of a compound that is named as a salt.

biological target: T1, human PDE4D (HPDE4D) (Homo sapiens, UniProt Q08499); test: Confirmatory test for phosphodiesterase (PDE) 4 inhibitory activity; format: biochemical; conditions: concentration that inhibits the PDE4 activity by 50%; PDE4D enzyme solution from transfected COS-7 cells, [3H]cAMP substrate
T1 construct: made in house; host or cells: COS-7 cells (African green monkey kidney), transient transfection; soluble supernatant of the homogenate
T1 sequence (Q08499 whole entry): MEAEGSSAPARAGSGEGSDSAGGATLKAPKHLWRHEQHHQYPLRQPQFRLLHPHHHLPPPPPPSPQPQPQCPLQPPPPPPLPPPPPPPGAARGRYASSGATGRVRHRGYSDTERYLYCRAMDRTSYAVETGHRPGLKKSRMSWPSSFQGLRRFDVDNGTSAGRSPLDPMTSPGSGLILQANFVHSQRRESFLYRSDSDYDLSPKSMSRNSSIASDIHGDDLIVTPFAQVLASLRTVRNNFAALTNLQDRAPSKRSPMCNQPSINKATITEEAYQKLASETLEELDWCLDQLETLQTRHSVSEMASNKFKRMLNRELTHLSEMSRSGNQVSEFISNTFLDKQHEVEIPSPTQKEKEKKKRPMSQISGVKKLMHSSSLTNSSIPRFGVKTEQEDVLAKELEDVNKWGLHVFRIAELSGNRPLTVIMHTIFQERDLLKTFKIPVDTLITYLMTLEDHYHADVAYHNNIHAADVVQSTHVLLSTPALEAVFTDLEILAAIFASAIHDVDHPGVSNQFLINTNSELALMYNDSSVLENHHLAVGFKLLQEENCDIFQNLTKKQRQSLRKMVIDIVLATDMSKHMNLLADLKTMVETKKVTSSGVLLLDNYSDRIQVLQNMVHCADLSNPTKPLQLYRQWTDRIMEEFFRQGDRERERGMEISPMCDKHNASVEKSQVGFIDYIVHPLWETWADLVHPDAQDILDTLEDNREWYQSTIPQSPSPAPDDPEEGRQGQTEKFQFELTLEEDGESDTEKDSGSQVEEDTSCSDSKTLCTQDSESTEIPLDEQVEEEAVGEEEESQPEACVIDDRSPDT
From the text: Confirmatory Test for Phosphodiesterase (PDE) 4 Inhibitory Activity
(1) Mass Preparation of Plasmids
Plasmids containing genes coding for human PDE4D (HPDE4D) (stored in Otsuka America Pharmaceutical, Inc., Maryland Research Laboratories) were transformed into Escherichia coli, and mass cultured. The plasmids were then purified using EndoFree™ Plasmid Mix Kit (Qiagen).
(2) Mass expression and purification of PDE4D
African green monkey kidney-derived COS-7 cells (RCB 0539) were subcultured in a DMEM medium containing 100 units/ml penicillin, […] streptomycin and 10% FBS. The plasmids prepared in (1) were transfected into the cells, using LipofectAMINE™ 2000 Reagent (hereinafter referred to as “LF2000”, a product of Invitroge), according to the attached protocol. For comparison, pcDNA3.1 was transfected as a control vector. The COS-7 cells were inoculated into 10 cm diameter petri dishes on the day before transfection, so that the cells reached 90% confluence on the day of transfection. Twelve micrograms of the plasmids diluted with 0.9 ml of OPTI-MEM I (Invitrogen) (a plasmid solution; Solution A) and 30 μl of LF2000 diluted with 0.9 ml of OPTI-MEM I (a LF2000 solution; Solution B) were prepared per petri dish, and allowed to stand at room temperature for 5 minutes. Solutions A and B were then mixed together and allowed to stand at room temperature for 20 minutes. The mixture was added to the cultured cells, and incubation was performed overnight at 37° C. in an atmosphere of 5% CO2. The culture medium was changed on the following day, incubation was continued overnight, and the cells were collected by the following procedure. First, the cells were washed once with PBS (Sigma), and 2 ml of Trypsin-EDTA solution (Sigma) was added per petri dish, spread over the dish and removed. The cells were then allowed to stand at 37° C. for 2 to 3 minutes, separated from the petri dish and suspended in a medium. The suspension was placed in a centrifuge tube, and centrifuged at 200×g and 4° C. for 5 minutes. The supernatant was then removed. The cells were further washed with PBS and stored at −80° C. A KHEM buffer (50 mM Hepes, 50 mM KCl, 10 mM EGTA, 1.92 mM MgCl2, pH 7.2) containing 1 mM DTT, 40 μg/ml PMST, 156 μg/ml benzamidine, 1 μg/ml apotinin, 1 μg/ml leupeptin, 1 μg/ml pepstatin A, and 1 μg/ml antipain was added to the cells that had been stored, and the resulting mixture was placed in a glass homogenizer and homogenized on ice. The cell suspension was centrifuged at 100×g and 4° C. for 5 minutes, and the supernatant was further centrifuged at 100,000×g for 1 hour. Thereafter, the supernatant was dispensed into new tubes as a PDE4D enzyme solution, and stored in an ultra-low-temperature freezer. The protein concentration of the PDE4D enzyme solution was then measured.
(3) Determination of Dilution Factor of PDE4D Enzyme Solution
The PDE4D enzyme solution prepared in (2) was diluted 10-, 25-, 50-, 100-, 200-, 400- and 800-fold with 20 mM Tris-HCl (pH 7.4), and the PDE4D activities of the diluted enzyme solutions were measured by the method described in (4) to determine the optimum dilution factor to obtain a PDE4D enzyme solution in which degraded cAMP constituted 10 to 30% of the total cAMP.
(4) Measurement of PDE4D Inhibitory Activity
The necessary amount of each test substance was weighed out and dissolved in 100% DMSO to a concentration of 10 mM. The resulting solutions were stored in a freezer as test substance stock solutions. Before the inhibitory activity measurement, the stock solutions were melted, diluted 2-fold with 100% DMSO to a concentration of 5 mM, and further diluted with 100% DMSO to obtain test substance solutions with 10 graded concentrations. Each test substance solution was added to a 1.2 ml tube containing 23 μl of 20 mM Tris-HCl (pH 7.4). […]

In order of falling IC50:
1. CCOc1ccc(-c2nc(CCC(O)c3ncccc3OC)cs2)cc1OCC (centres unmarked) [Example 187, 3-[2-(3,4-diethoxyphenyl)thiazole-4-yl]-1-(3-methoxypyridine-2-yl)-1-propanol dihydrochloride]  6.6 nM
2. CCOc1ccc(-c2nc(CCC(=O)c3ncccc3OCC)cs2)cc1OCC [Example 87, 3-[2-(3,4-diethoxyphenyl)thiazole-4-yl]-1-(3-ethoxypyridine-2-yl)-1-propanone]  0.2 nM

tested on: not given; test: not given; conditions: not given

First: CCOc1ccc(-c2nc(/C=C/C(=O)c3ccccc3O)cs2)cc1OCC (as salt: hydrobromid) [Example 15]
Second: CCOc1ccc(-c2nc(/C=C/C(=O)c3ccccc3[N+](=O)[O-])cs2)cc1OCC [Example 27]
The melting point of the first is lower: 126 to 127 °C for the first, 142 to 143 °C for the second.

`COc1ccc(-c2nc(/C=C/C(=O)c3cc(O)cc(O)c3)cs2)cc1OC` (as salt: hydrochloride) [Example 6] and `COc1ccc(-c2nc(/C=C/C(=O)c3ccc(O)c(O)c3)cs2)cc1OC` (as salt: hydrochloride) [Example 7] cannot be ordered by melting point: 164 to 168 °C for the first, 162 to 165 °C for the second.

Compared with `CCOc1ccc(-c2nc(/C=C/C(=O)c3cc(Cl)c(N)c(Cl)c3)cs2)cc1OCC` (as salt: hydrochloride) [Example 12], `CCOc1ccc(-c2nc(/C=C/C(=O)c3ccc(Cl)c(Cl)c3)cs2)cc1OCC` [Example 29] is lower in melting point: 165 to 168 °C for the first, 138 to 139 °C for the second.

First: CCOc1ccc(-c2nc(CCC(=O)c3ccc(O)c(O)c3)cs2)cc1OCC (as salt: hydrochloride) [Example 92]
Second: CCOc1ccc(-c2nc(CCC(=O)c3ccccc3O)cs2)cc1OCC [Example 98]
The melting point of the first is higher: 153.2 to 153.8 °C for the first, 113.7 to 114.9 °C for the second.

First: CCOc1ccc(-c2nc(/C=C/C(=O)c3ccc(OC(C)=O)c(OC(C)=O)c3)cs2)cc1OCC [Example 8]
Second: CCOc1ccc(-c2nc(/C=C/C(=O)c3ccc(OC)c(OC)c3)cs2)cc1OCC [Example 13]
The melting point of the first is lower: 139 to 140 °C for the first, 152 to 153 °C for the second.

First: CCOc1ccc(-c2nc(/C=C/C(=O)c3c(O)cc(O)cc3O)cs2)cc1OCC [Example 9]
Second: CCOc1ccc(-c2nc(/C=C/C(=O)c3ccc(O)c(C(=O)O)c3)cs2)cc1OCC [Example 19]
The melting point of the first is lower: 188 to 189 °C for the first, 195 to 196 °C for the second.

First: CCOc1ccc(-c2nc(/C=C/C(=O)c3ccc(O)cc3)cs2)cc1OCC [Example 10]
Second: CCOc1ccc(-c2nc(/C=C/C(=O)c3ccc(Cl)cc3)cs2)cc1OCC [Example 21]
The melting point of the first is higher: 133 to 134 °C for the first, 131 to 133 °C for the second.

First: CCOc1ccc(-c2nc(/C=C/C(=O)c3cc(OC)c(OC)c(OC)c3)cs2)cc1OCC [Example 11]
Second: CCOc1cc(-c2nc(/C=C/C(=O)c3cc(OC)ccc3OC)cs2)ccc1OC [Example 40]
The melting point of the first is higher: 155 to 156 °C for the first, 79 to 82 °C for the second.

First: CCOc1ccc(-c2nc(/C=C/C(=O)c3ccccc3)cs2)cc1OCC [Example 14]
Second: CCOc1ccc(-c2nc(/C=C/C(=O)c3cccc(O)c3)cs2)cc1OCC [Example 16]
The melting point of the first is lower: 129 to 130 °C for the first, 144.5 to 146 °C for the second.

First: CCOc1ccc(-c2nc(/C=C/C(=O)c3ccc(C(=O)OC)cc3)cs2)cc1OCC [Example 17]
Second: CCOc1ccc(-c2nc(/C=C/C(=O)c3ccc(C(C)=O)cc3)cs2)cc1OCC [Example 23]
The melting point of the first is higher: 150 to 151 °C for the first, 128 to 129 °C for the second.

First: CCOc1ccc(-c2nc(/C=C/C(=O)c3ccc(C#N)cc3)cs2)cc1OCC [Example 18]
Second: CCOc1ccc(-c2nc(/C=C/C(=O)c3ccc(F)cc3)cs2)cc1OCC [Example 25]
The melting point of the first is higher: 164 to 167 °C for the first, 116 to 121 °C for the second.

Compared with `CCOc1ccc(-c2nc(/C=C/C(=O)c3ccc(O)c(C(=O)OC)c3)cs2)cc1OCC` [Example 20], `CCOc1ccc(-c2nc(/C=C/C(=O)c3ccccc3C(=O)OC)cs2)cc1OCC` [Example 33] is lower in melting point: 161.3 to 162.8 °C for the first, 132 to 133 °C for the second.

Compared with `COc1ccc(-c2nc(/C=C/C(=O)c3cc(C(C)(C)C)c(O)c(C(C)(C)C)c3)cs2)cc1OC` [Example 22], `COc1ccc(-c2nc(/C=C/C(=O)c3ccc(O)cc3)cs2)cc1OC` [Example 37] is lower in melting point: 228 to 230 °C for the first, 174 to 177 °C for the second.

`CCOc1ccc(-c2nc(/C=C/C(=O)c3cccc([N+](=O)[O-])c3)cs2)cc1OCC` [Example 24] and `CCOc1ccc(-c2nc(/C=C/C(=O)c3ccc([N+](=O)[O-])cc3)cs2)cc1OCC` [Example 32] cannot be ordered by melting point: 125 to 126 °C for the first, 125 to 127 °C for the second.

Compared with `CCOc1ccc(-c2nc(/C=C/C(=O)c3ccc(C)cc3)cs2)cc1OCC` [Example 26], `CCOc1ccc(-c2nc(/C=C/C(=O)c3ccc(N)cc3)cs2)cc1OCC` [Example 30] is higher in melting point: 124 to 125.5 °C for the first, 148 to 150 °C for the second.

First: CCOc1ccc(-c2nc(/C=C/C(=O)c3ccc(NC(C)=O)cc3)cs2)cc1OCC [Example 28]
Second: CCOc1ccc(C(=O)/C=C/c2csc(-c3ccc(OCC)c(OCC)c3)n2)cc1 [Example 31]
The melting point of the first is higher: 199.5 to 201.5 °C for the first, 130 to 135 °C for the second.

Compared with `COc1ccc(-c2nc(/C=C/C(=O)c3ccc(O)c(C(=O)O)c3)cs2)cc1OC` [Example 39], `COc1ccc(-c2nc(CCC(=O)c3ccc(OC(C)=O)c(OC(C)=O)c3)cs2)cc1OC` [Example 94] is lower in melting point: 227.4 to 228 °C for the first, 128 to 128.5 °C for the second.

First: CCOc1ccc(-c2nc(CCC(=O)c3nccs3)cs2)cc1OCC [Example 90, 3-[2-(3,4-diethoxyphenyl)thiazole-4-yl]-1-thiazole-2-yl-1-propanone]
Second: CCOc1ccc(-c2nc(CCC(=O)c3ccccc3F)cs2)cc1OCC [Example 101]
The melting point of the first is higher: 93.1 to 94.4 °C for the first, 82.5 to 83.5 °C for the second.

Compared with `CCOc1ccc(C(=O)CCc2csc(-c3ccc(OC)c(OC)c3)n2)cc1OCC` [Example 93], `CCOc1ccc(-c2nc(CCC(=O)c3cc(OC)ccc3OC)cs2)cc1OCC` [Example 95] is lower in melting point: 141.3 to 142.4 °C for the first, 97.8 to 98.5 °C for the second.

First: CCOc1ccc(-c2nc(CCC(=O)c3ccccc3Br)cs2)cc1OCC [Example 103]
Second: CCOc1ccc(-c2nc(CCC(=O)c3ccccc3Cl)cs2)cc1OCC [Example 104]
The melting point of the first is higher: 66.1 to 67.9 °C for the first, 64.4 to 65.1 °C for the second.

`CCOc1ccc(-c2nc(CCC(=O)c3cc(Cl)ccc3OC)cs2)cc1OCC` [Example 108] and `CCOc1ccc(-c2nc(CCC(=O)c3ccccc3C(=O)OC)cs2)cc1OCC` [Example 240, methyl 2-{3-[2-(3,4-diethoxyphenyl)thiazole-4-yl]propionyl}benzoate] cannot be ordered by melting point: 90.2 to 92 °C for the first, 91.7 to 92.9 °C for the second.

First: CCOc1ccc(-c2nc(CCC(O)c3ccccc3OC)cs2)cc1OCC (centres unmarked) [Example 186, 3-[2-(3,4-diethoxyphenyl)thiazole-4-yl]-1-(2-methoxyphenyl)-1-propanol]
Second: CCOc1ccc(CC(=O)Cc2csc(-c3ccc(OC)c(OC)c3)n2)cc1OCC [Example 243, 3-[2-(3,4-dimethoxyphenyl)thiazole-4-yl]-1-(3,4-diethoxyphenyl)propanone]
The melting point of the first is lower: 78.2 to 79 °C for the first, 141.3 to 142.4 °C for the second.

With `COc1ccc(-c2nc(CC(=O)Cc3ccc(OC(C)=O)c(OC(C)=O)c3)cs2)cc1OC` [Example 242, 3-[2-(3,4-dimethoxyphenyl)thiazole-4-yl]-1-(3,4-diacetoxyphenyl)propanone] the melting point was 128 to 128.5 °C.
